Patent EP1312365A1, “Pteridinones for the treatment of erectile dysfunctions” (Jenapharm GmbH & Co. KG, priority 2001, dated 2003)

Assays:
[1] = system: cavernosalen glatten Muskulatur; assay: Organ bath contraction study with corpus cavernosum strips (phenylephrine-induced contraction); design: species or system Kaninchen; details: for Relaxation der kavernösen, glatten Muskulatur: Kaninchen, phenylephrine-precontracted tissue
Method: Männliche New Zealand White-Kaninchen (Gewicht: 2,5-3,0 kg) wurden mit CO2-Gas eingeschläfert. Das cavernöse Gewebe wurde beim Sezieren in eine HEPES-gepufferte Lösung (20°C, pH 7,4) eingebracht. Die oben liegende Skelettmuskulatur wurde vorsichtig entfernt, um nicht die darunterliegende Tunica albuginea zu beschädigen. Im proximalen Ende der Tunica wurde ein Schnitt ausgeführt, während sie distal erweitert wurde. Dann wurde das Corpus Cavernosum bilateral aus der Tunica herausgelöst.
Für menschliches Gewebe wurde das Verfahren zum Ernten von Gewebe vom Institutional Review Board for Human Studies am Boston University Medical Center genehmigt. Cavernöses Gewebe wurde von Patienten erhalten, die sich der Implantation einer Penisprothese zur Behandlung einer erektilen Dysfunktion unterzogen. Im Operationssaal wurden Biopsien der Corpora cavernosa sofort in eisgekühlte (4°C) physiologische Salzlösung gelegt und zum Labor transportiert. Gewebestreifen mit einer Größe von etwa 3 mm x 3mm x 10 mm wurden zugeschnitten und für Organbadstudien gemäß einem ähnlichen Verfahren wie dem nachfolgend beschriebenen präpariert.
Längsschnitte des Corpus cavernosum wurden in Organbäder gelegt, die folgendes (in mM) enthielten: 118 NaCI, 4,7 KCI, 1,2 KH2PO4, MgSO4, 24,9 NaCO3, 5,5 Glucose, 2,0 Na-Pyruvat und 2,0 CaCl2. Die Streifen cavernöser, glatter Muskulatur wurden mit 2 Gramm gestreckt und mit einem Gemisch von 95% O2 und 5% CO2 während zwei Stunden äquilibriert, bevor mit dem Versuchsverfahren begonnen wurde. Dann wurden die Gewebe an Kraftwandler (Grass FT03) angeschlossen. Die Spannungsmessungen wurden mit einem MP100-System und der AcqKnowledge-Software (Biopac) digital aufgezeichnet.
Die Gewebe wurden mit Indomethacin (10 µM) vorbehandelt, um Cyclooxygenaseeffekte zu beseitigen. Durch Zugabe von Phenylephrin (10 µM) zu den Organkammern wurden Kontraktionen induziert. Nachdem die Phenylephrin-induzierte Kontraktion einen dauerhaften Zustand erreicht hatte, wurde das tricyclische Pteridinon (Pt) (Fig. 1a und 1b) oder der Stickstoffoxid-Donor S-Nitroso-N-acetylpenicillamin (SNAP) zugegeben (Fig. 2).

[2] = system: Macaca fascicularis-Affen; assay: Monkey model of male erectile dysfunction (intracavernous pressure, blood pressure); type: in vivo
Katzen = assay: Cat model of male erectile dysfunction (intracavernous pressure, systemic blood pressure); type: in vivo
Method: Geschlechtsreife männliche Katzen (Körpergewicht 2,9-4,6 kg) wurden mit α-Chloralose (60 mg/kg i.m.) narkotisiert. Dann wurden Hartmansche Lösung und eine Dextroselösung bei […] über die antekubitale Vene infundiert. Die Beatmung wurde über eine an einen Tierventilator (Harvard Apparatus Ltd., Boston MA) angeschlossene Tracheotomie sichergestellt. Pancuroniumbromid (0,3 ml/kg) wurde als Muskelrelaxans infundiert. Nach Bedarf wurden zusätzliche Dosen von α-Chlorase und Pancuroniumbromid gegeben, um ein gleichbleibendes Anästhesie-Niveau beizubehalten.
In der inneren Carotid-Arterie wurde ein zentraler Katheter gelegt, um eine Arterienblut-Gasanalyse (ABGA) durchzuführen und den systemischen Blutdruck in der Arterie aufzuzeichnen. Eine 23 G-Nadel wurde in das Corpus cavernosum eingeführt, um die Veränderungen des intracavernösen Drucks (ICP) zu messen. Sowohl der systemische, arterielle Blutdruck als auch der ICP wurden mittels eines Druckwandlers (Gilson P23XL-1, physiologischer Druckwandler, Ohmeda, Kanada), der an einen Polygraphen (Grass Model 7D, Quincy, MA, USA) angeschlossen war, gemessen. Zur lokalen Injektion von Versuchsverbindungen wurde ein Zweig der inneren Pudendalarterie auf einer Seite mit einem länglichen Polyethylenschlauch (PE-10-Schlauch, Original-Innendurchmesser 0,25 mm, Außendurchmesser 0,76 mm) retrograd mikrokanüliert. Dann wurden zur Verabreichung der Wirkstoffe (jeweils 0,1 ml) in den Penis die übrigen Zweige, bis auf die Penisarterie, ligiert. Mit geeigneten Ventilator-Einstellungen (z.B. Tidalvolumen 10 ml/kg; Atmungsrate 15-20/Min.) wurde eine Normoxie (pH > 7,25, PO2 > 60 mmHg, PCO2 < 40 mmHg) erzeugt und mit ABGA und einem mit der ausgeatmeten Luft verbundenen Capnometer (Modell 2200, Traverse Medical Monitors, USA) überprüft. Um die Volumeneffekte von Lösungsmitteln zu beurteilen, wurden destilliertes Wasser und normale Kochsalzlösung intraarteriell infundiert. Intraarterielles Wasser und Kochsalzlösung hatten selbst bei einem Bolus keinen Effekt auf den intracavernösen Druck (ICP).
Die Lösungen des tricyclischen Pteridinon wurden unter Verwendung einer 1%igen 6N HCI- und einer 5%igen DMSO-Lösung hergestellt. Papaverin (50 mg) + Phentolamin (5 mg) (Bimix) wurde in 5 ml mit 5% DMSO/Rest Kochsalzlösung hergestellt. Jedes Arzneimittel wurde als Bolus von 0,1 ml und 0,05 ml heparinisierter Kochsalzlösung zum Spülen infundiert.
Der Grund-ICP, ΔICP (d.h. die reine Veränderung des Grund-ICP) und Veränderungen des systemischen Blutdrucks wurden nach der intraarteriellen Injektion aufgezeichnet. Alle Daten wurden mittels eines Student's t-Test beurteilt, wobei p<0,05 als signifikant galt. Die Daten priapischer Episoden wurden bei den Berechnungen ausgeschlossen.

[3] = system: Macaca fascicularis-Affen; assay: Monkey model of male erectile dysfunction (intracavernous pressure, blood pressure); type: in vivo; details: for Maximaler Druck / Mittlerer Druckanstieg: intracavernous bolus 0,5 ml, given after nitroprusside response returned to baseline
Method: Das tricyclische Pteridinon wurde Macaca fascicularis-Affen als intracavernöse Bolusinjektion (0,5 ml, mit 0,5 ml Kochsalzlösung-Flush) verabreicht. Die Auswirkungen auf den intracavernösen Druck wurden mitlaufend gemessen und mit denen des Stickstoffoxid-Donors Nitroprussid (SNP oder NP) verglichen. Stickstoffoxid induziert eine Erektion, indem es als Guanylatcyclase-Agonist wirkt.
Die abschließende Reihe der in vivo-Versuche an Affen untersuchte die Effekte des tricyclischen Pteridinon bei intravenöser Verabreichung (1 und 3 mg/kg) 15 Minuten vor der intracavernösen Injektion von Nitroprussid (10^-5 M). Diese Vorgehensweise wurde gewählt, um zu bestimmen, ob die "systemische Verabreichung" von tricyclischem Pteridinon die Nitroprussid-induzierte, erektile Reaktion wirksam verstärkt.

PDE VI = assay: PDE subtype profile: inhibition of isolated PDE isozyme; type: biochemical; details: source of PDE VI not given
Method: (§1) Die PDE-Aktivität wurde in einem Reaktionsmedium gemessen, das 40 mM Tris-HCI (pH 8,0), 5 mM MgCl2, 1 mM Dithiothreitol und 0,2 µM [^3H] cyclisches GMP enthielt. Das tricyclische Pteridinon wurde in DMSO (2,5%) gelöst. Bei dieser DMSO-Konzentration wurde die Enzymaktivität zu etwa 10% inhibiert. Die IC50-Werte für das tricyclische Pteridinon wurden anhand von Dosis-Wirkungs-Kurven bestimmt, bei denen die Konzentration im Bereich von 1 nM bis 10 µM (ganze log-Inkremente) lag. Für jedes untersuchte PDE-Isozym wurden mindestens zwei IC50-Bestimmungen an verschiedenen Tagen durchgeführt.

PDE I = assay: as above; type: biochemical; details: PDE I aus Rinder-Aorta; 0,2 µM [3H] cyclisches GMP
Method: (§2) Die verschiedenen Formen cyclischer Nukleotidphosphodiesterasen (PDE) wurden mit üblichen Methoden isoliert. Die PDE-lsozyme wurden aus den folgenden Quellen isoliert: PDE I und PDE V aus Rinder-Aorta, PDE II aus dem linken Ventrikel von Ratten, PDE IV aus Rattenniere und PDE III aus menschlichen Plättchen.
as §1

PDE V = biological target: T1, PDE V (Bos taurus, UniProt Q28156); assay: as above; type: biochemical; details: PDE V aus Rinder-Aorta
T1 construct: Die PDE-lsozyme wurden aus den folgenden Quellen isoliert; from tissue; host or cells: bovine aorta
Method: as §2, §1

PDE III = biological target: T2, PDE III (Homo sapiens, UniProt Q14432); assay: as above; type: biochemical; details: PDE III aus menschlichen Plättchen
T2 construct: Die PDE-lsozyme wurden aus den folgenden Quellen isoliert; from tissue; host or cells: human platelets
T2 sequence (Q14432 whole entry): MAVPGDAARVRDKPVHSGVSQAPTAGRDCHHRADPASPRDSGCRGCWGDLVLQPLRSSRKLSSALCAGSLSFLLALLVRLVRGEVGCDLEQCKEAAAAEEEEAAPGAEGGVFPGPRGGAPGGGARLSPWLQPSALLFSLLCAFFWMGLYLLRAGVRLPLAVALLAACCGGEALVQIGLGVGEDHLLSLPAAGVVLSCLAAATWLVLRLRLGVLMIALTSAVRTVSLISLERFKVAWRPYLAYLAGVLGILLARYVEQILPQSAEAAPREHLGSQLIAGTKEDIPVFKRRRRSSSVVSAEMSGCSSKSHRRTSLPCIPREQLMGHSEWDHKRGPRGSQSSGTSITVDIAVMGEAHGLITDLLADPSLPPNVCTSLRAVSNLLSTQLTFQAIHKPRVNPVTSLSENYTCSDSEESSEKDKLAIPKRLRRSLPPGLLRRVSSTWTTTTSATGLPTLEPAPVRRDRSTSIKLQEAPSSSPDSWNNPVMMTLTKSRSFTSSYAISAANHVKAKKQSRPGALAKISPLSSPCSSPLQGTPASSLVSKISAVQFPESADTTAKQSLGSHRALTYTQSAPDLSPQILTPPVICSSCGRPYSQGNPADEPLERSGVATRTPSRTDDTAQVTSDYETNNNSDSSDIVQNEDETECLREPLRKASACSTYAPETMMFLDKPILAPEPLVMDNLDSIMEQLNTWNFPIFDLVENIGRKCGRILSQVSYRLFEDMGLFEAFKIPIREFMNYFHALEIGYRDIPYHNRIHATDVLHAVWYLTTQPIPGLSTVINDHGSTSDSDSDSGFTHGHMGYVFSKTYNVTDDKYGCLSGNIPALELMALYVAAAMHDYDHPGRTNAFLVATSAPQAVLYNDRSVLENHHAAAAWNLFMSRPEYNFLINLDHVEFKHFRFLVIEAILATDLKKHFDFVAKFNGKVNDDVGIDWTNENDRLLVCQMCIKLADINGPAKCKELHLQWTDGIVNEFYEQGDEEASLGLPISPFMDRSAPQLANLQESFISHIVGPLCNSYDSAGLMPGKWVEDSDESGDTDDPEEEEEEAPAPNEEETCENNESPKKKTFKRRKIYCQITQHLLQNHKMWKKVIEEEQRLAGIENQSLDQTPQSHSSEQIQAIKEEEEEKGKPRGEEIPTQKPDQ
Method: as §2, §1

PDE IV = assay: as above; type: biochemical, Ratten; details: PDE IV aus Rattenniere
Method: as §2, §1

[4] = Pharmacokinetic experiments, plasma levels after oral administration; type: in vivo; details: species not given
[5] = i.v. bolus injection 0,5 mg/Tier

In the case of `CC(=O)N[C@H](C(=O)O)C(C)(C)SN=O` [SNAP, S-Nitroso-N-acetylpenicillamin, reference compound], the “Relaxation der kavernösen, glatten Muskulatur” value ([1]; Fig. 2) is reported as “unmittelbare Relaxation”.
For `CCc1nc(C)cn1-c1nc(C(C)C)c2[nH]c(=O)c3c(C)nc(CC)n3c2n1` [tricyclisches Pteridinon, 9-Ethyl-2-(2-ethyl-4-methyl-1H-imidazol-1-yl)-7-methyl-4-(2-propyl)imidazo[5,1-h]pteridin-6(5H)on], the “Dauer des Nitroprussid-induzierten Anstiegs des cavernösen Drucks” value ([2]; 1 mg/kg given simultaneously with nitroprusside) was “verdoppelte”, the “Dauer des Nitroprussid-induzierten Anstiegs des cavernösen Drucks” value ([2]; 3 mg/kg given simultaneously with nitroprusside) was “nahezu verdreifachten” and the “Erektionen steif (visuelle Bestimmung)” value (Katzen; 0,1 mg/Tier) was “nicht als steif”. For the same compound, the Erektionen steif (Katzen; higher doses (Fig. 3: 0,3 and 0,5 mg/Tier)) was “steifen Erektion”, the “Dauer der vorübergehenden Spitzenabfälle des systemischen Arterienblutdrucks” value (Katzen; [5]) was no more than 5 Minuten and the “Spitzenabfälle des systemischen Arterienblutdrucks” value (Katzen; [5]) was 15,8 mmHg. For the same compound, the “Anstieg des ICP” value (Katzen; local intra-arterial administration, 0,1 mg/Tier, p<0,01) was 5,5 mmHg, the “Dosis, die den ICP erhöht” value (Katzen; local intra-arterial injection, 0,1 ml bolus, initial dose-finding study) was ≥ 0,0038 mg and the “ICP, Dosisabhängigkeit” value (Katzen; local intra-arterial injection, Fig. 3) was “erhöhte in dosisabhängiger Weise signifikant den ICP”. For the same compound, the “Anstieg des cavernösen Drucks” value ([3]; Affen, given before administration of nitroprusside) was “keinen anhaltenden Anstieg”, the “intracavernöser Druck nach systemischer Verabreichung” value ([3]; Affen, i.v. 1 and 3 mg/kg, Fig. 5) was “wirksam erhöht” and the Blutdrucksenkung ([3]; Affen, i.v. administration, 1 and 3 mg/kg) was 20-40 mmHg. For the same compound, the “Maximaler Druck” value ([3]; Affen, 10^-4 Molar) was 165 (1) cm H2O, the “Mittlerer Druckanstieg” value ([3]; Affen, 10^-4 Molar) was 62 (1) Δ cm H2O and the “Maximaler Druck” value ([3]; Affen, 10^-5 Molar) was 103 (3) cm H2O. For the same compound, the “Mittlerer Druckanstieg” value ([3]; Affen, 10^-5 Molar) was 51 (3) Δ cm H2O, the “Maximaler Druck” value ([3]; Affen, 10^-6 Molar) was 95 (2) cm H2O and the “Mittlerer Druckanstieg” value ([3]; Affen, 10^-6 Molar) was 41 (2) Δ cm H2O. The “Adverse finding after pretreatment” value ([3]; one monkey, pretreatment 3 mg/kg followed by nitroprusside 10^-5 M i.c.) was “Priapismus”, the IC50 (PDE VI) was 56 nM and the “Relaxation der kavernösen, glatten Muskulatur” value ([1]; Fig. 2) was “unmittelbare Relaxation”. For the same compound, the IC50 ([1]; Phenylephrin 10 µM, Indomethacin 10^-5 M, Fig. 1 (Kaninchen, and tissue of impotent patients), read-out: IC50-Wert für die Inhibierung der Phenylephrin-induzierten Kontraktion) was roughly 1000 nM, the “Stärke im Vergleich zu SNAP” value ([1]; in vitro model, Fig. 2) was “stärker” and the IC50 (PDE I) was 5.8 nM. It also gave an IC50 (PDE V) of 35 nM, an IC50 (PDE III) greater than 10 µM and an IC50 (PDE IV) of 74 nM. For the same compound, the “Zeit bis zu signifikanten Plasmamengen nach oraler Verabreichung” value [4] was no more than 30 Minuten.
